Data set [1] in a line: Cytotoxicity against sea urchin eggs. Further details: species or system Egg. The following applies: strongylocentrotus intermedius, read-out: MIC.
The nature of data set [2]: Antioxidant activity assessed as singlet oxygen quenching activity. The class given is functional.
The subject of a further data set is Candida albicans. As to the kind of experiment: Antimicrobial activity against Candida albicans. The class given is functional.

Usually IC50 stands for the concentration at which inhibition is half-maximal. What is called MIC is the lowest concentration that inhibits growth of the organism.

The structures appear in SMILES notation. ≈ marks a conversion by molar mass, not a printed value. Where a SMILES comes first, the peptide text is derived from it. Bridges are numbered along the chain shown (N, C = ends). The star is where a group is joined. X1 = O=C(/C=C/C=C/C=C/C=C/c1ccc(O)c(Br)c1)*

As to `CC[C@@H](C)[C@@H]1NC(=O)[C@H](CC(N)=O)NC(=O)[C@H](CC(N)=O)NC(=O)[C@H](C(C)C)NC(=O)[C@@H](NC(=O)/C=C/C=C/C=C/C=C/c2ccc(O)c(Br)c2)[C@@H](C)OC1=O`, the MCC in data set [1] was found to be 40 µg/mL.

As for `CC[C@@H](C)[C@@H]1NC(=O)[C@H](CC(N)=O)NC(=O)[C@H](CC(N)=O)NC(=O)[C@H](C(C)C)NC(=O)[C@@H](NC(=O)CCCCCCCCc2ccc(O)cc2)[C@@H](C)OC1=O`, the MCC in data set [1] came out at 40 µg/mL.

For the compound `CC(/C=C/C=C(C)/C=C/C=C(\C)C(=O)O)=C\C=C\C=C(C)\C=C\C=C(C)\C=C\C=C(/C)C(=O)O[C@@H]1OC[C@@H](O)[C@H](O)[C@H]1OC(=O)CCCCCCCCCCC(C)C`, the IC50 in data set [2] turned out to be 5.1 µM.

As for `CC[C@@H](C)[C@@H]1NC(=O)[C@H](CC(N)=O)NC(=O)[C@H](CC(N)=O)NC(=O)[C@H](C(C)C)NC(=O)[C@@H](NC(=O)CCCCCCCCc2ccc(O)c(Br)c2)[C@@H](C)OC1=O`, the MCC in data set [1] turned out to be 40 µg/mL.

In turn, `C/C1=C\[C@H](C)C[C@H](C)OC(=O)C[C@H](c2ccc(O)cc2)NC(=O)[C@@H](Cc2c(Br)[nH]c3ccccc23)N(C)C(=O)[C@H](C)NC(=O)[C@@H](C)C1` [JASPAMIDE] had an MIC in the data set on Candida albicans of 25 µg/mL (≈ 35.2 µM).

As to `CC[C@@H](C)[C@@H]1NC(=O)[C@H](CC(N)=O)NC(=O)[C@H](CC(N)=O)NC(=O)[C@H](C(C)C)NC(=O)[C@@H](NC(=O)/C=C/CCCCCCc2ccc(O)c(Br)c2)[C@@H](C)OC1=O`, the MCC in data set [1] was 40 µg/mL.

`CC(C)C[C@@H]1NC(=O)[C@H](CC(N)=O)NC(=O)[C@H](CC(N)=O)NC(=O)[C@H](C(C)C)NC(=O)[C@@H](NC(=O)/C=C/C=C/C=C/C=C/c2ccc(O)c(Br)c2)[C@@H](C)OC1=O` (X1-TVNNL; ester 1-C): the MCC in data set [1] came out at 40 µg/mL.

The values are drawn from ChEMBL document CHEMBL3124802, “Scrutinizing the scaffolds of marine biosynthetics from different source organisms: Gram-negative cultured bacterial products enter center stage” (J Nat Prod, 2014).
